Experiment [1] relates to E. oxidotolerans peptidase. Kind of experiment: Fluorogenic substrate hydrolysis progress curves with class-specific inhibitors (purified enzyme). It is filed as biochemical, Exiguobacterium oxidotolerans. The settings on record: 1,10 phenanthroline 2 mM, PMSF 0.2 mM, E-64 10 μM. Here is the method:
Peptidase activity was confirmed using the matrix metalloproteinase (MMP) substrate Mca-Lys-Pro-Leu-Gly-Leu-Dap-(Dnp)-Ala-Arg-NH2 (Peptides International). Class-specific inhibitors were used to determine the catalytic mechanism, including E-64 (10 μM) for cysteine proteases, 1,10 phenanthroline (2 mM) for metalloproteases, and PMSF (0.2 mM) for serine proteases. These concentrations were selected based on established guidelines for effective inhibition. Fluorescence was monitored at excitation 330 nm and emission 460 nm over a 45 min period as described previously.
Time-dependent hydrolysis of the fluorogenic substrate Mca-Lys-Pro-Leu-Gly-Leu-Dap-(Dnp)-Ala-Arg-NH2 by exiguolysin was measured in 96-well plates (total volume 100 µL) with fluorescence was measured every 30 s for 45 min using a plate reader (excitation at 330 nm and emission at 460 nm). Progress curves were generated, and kinetic parameters were determined using non-linear regression.

The test system of experiment [2] is E. oxidotolerans protease. The experiment can be described thus: Azocasein hydrolysis with class-specific protease inhibitors (culture supernatant). Conditions: 1,10-phenanthroline 2 mM, PMSF 0.2 mM, E-64 10 μM; 37 °C, 1 h; crude preparation. It is filed as biochemical, Exiguobacterium oxidotolerans. Here is the method: Peptidase activity was quantified using azocasein hydrolysis. Conditioned media (100 µL) was mixed with 1% (w/v) azocasein in PBS and incubated at […] for 1 h. The reaction was quenched by adding 400 µL of 5% trifluoroacetic acid (TFA), and the mixture was centrifuged at 13,000 rpm for 10 min. Absorbance of the supernatant was measured at 440 nm to determine protease activity. Units of protease activity were calculated as previously described by Loomes et al..
Overnight cultures were centrifuged (4000 rpm, 4 °C, 12 min), and the supernatant was filtered through a 0.45 µm nitrocellulose membrane. Protease activity was evaluated by incubating 100 µL of supernatant with 1% azocasein at 37 °C for 1 h. The reaction was quenched with 400 µL of TFA, and absorbance was measured at 440 nm. Protease mechanistic class was determined by incubating the supernatant with 2 mM 1,10-phenanthroline (metalloprotease inhibitor), 0.2 mM PMSF (serine protease inhibitor), and 10 µM E-64 (cysteine protease inhibitor) prior to azocasein hydrolysis.

Experiment [3] deals with E. oxidotolerans peptidase. Kind of experiment: Casein zymography with and without 1,10-phenanthroline. Format: biochemical, Exiguobacterium oxidotolerans. The settings on record: crude and purified samples; 1,10-phenanthroline in renaturing buffer. Here is the method: Casein zymography was used to visualize protease activity in fractions collected from the Akta Prime HIC system. Samples were prepared in Laemmli buffer and run on a Tris-Glycine casein zymogram gel using the XCell SureLock™ Mini-Cell system. Following electrophoresis, gels were sectioned and renatured in Novex zyogram renaturing buffer with and without 1,10 phenanthroline (5 mM) to assess metalloprotease activity. Gels were stained, destained, and analyzed for caseinolytic peptidase activity.

The target of experiment [4] is thermolysin-like protease of E. oxidotolerans (exiguolysin) (Exiguobacterium oxidotolerans, UniProt A0A653I866). The experiment can be described thus: Inhibitor screening and Ki determination, fluorogenic MMP substrate assay. It is filed as biochemical. Conditions: fluorogenic substrate hydrolysis, 37 °C; Morrison equation for tight-binding inhibitors; Km 14.20 µM; read-out: True Ki. As for the experimental part: The inhibition of protease activity was screened using a 20 × 20 library of N-alpha dipeptide mercaptoamide inhibitors as previously described by Cathcart et al., and the half-maximal inhibitory constant (Ki) values were determined. In order to determine Michaelis–Menten constant, Km, of the fluorogenic substrate, exiguolysin (previously purified by HIC, final concentration 5 units/well) was added to wells of a 96-well black microtitre plate (Nunc); the volume was adjusted to 75 µL in assay buffer (25 mM Tris, 2.5 mM CaCl2, pH 7.0), and fluorogenic substrate (25 µL) was added at concentrations of 0, 1, 10, 25, 50, 100 and 200 µM. Time-dependent hydrolysis of the fluorogenic substrate was measured (excitation/emission […] nm) every 30 s for 30 min. The Km is determined using the Michealis–Menten equation, by plotting the rate of substrate hydrolysis against substrate concentration.
thermolysin-like protease of E. oxidotolerans (exiguolysin), sequence (A0A653I866 entry or part of it): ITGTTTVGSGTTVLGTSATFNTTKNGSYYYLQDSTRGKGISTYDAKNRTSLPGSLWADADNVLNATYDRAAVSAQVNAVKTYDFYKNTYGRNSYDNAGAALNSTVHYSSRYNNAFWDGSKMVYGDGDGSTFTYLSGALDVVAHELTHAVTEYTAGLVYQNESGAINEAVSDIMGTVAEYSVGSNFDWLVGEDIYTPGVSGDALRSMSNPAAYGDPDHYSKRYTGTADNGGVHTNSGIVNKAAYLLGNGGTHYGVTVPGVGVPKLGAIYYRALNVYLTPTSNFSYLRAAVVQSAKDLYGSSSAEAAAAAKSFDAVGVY
Initially, each inhibitor was tested at a final concentration of 100 µM in a broad-spectrum screen, employing a standard fluorogenic substrate assay using Mca-Lys-Pro-Leu-Gly-Leu-Dap-(Dnp)-Ala-Arg-NH2. Enzyme reactions were carried out in a 96-well black plate at 37 °C, and fluorescence was monitored as described above.

The target in experiment [5] is T1, PAR-1 (Homo sapiens, UniProt P25116).
T1 construct: calcium mobilization in PC-3 cells (expressing PAR1); endogenous in cells; host or cells: PC-3
T1 sequence (P25116 22-425): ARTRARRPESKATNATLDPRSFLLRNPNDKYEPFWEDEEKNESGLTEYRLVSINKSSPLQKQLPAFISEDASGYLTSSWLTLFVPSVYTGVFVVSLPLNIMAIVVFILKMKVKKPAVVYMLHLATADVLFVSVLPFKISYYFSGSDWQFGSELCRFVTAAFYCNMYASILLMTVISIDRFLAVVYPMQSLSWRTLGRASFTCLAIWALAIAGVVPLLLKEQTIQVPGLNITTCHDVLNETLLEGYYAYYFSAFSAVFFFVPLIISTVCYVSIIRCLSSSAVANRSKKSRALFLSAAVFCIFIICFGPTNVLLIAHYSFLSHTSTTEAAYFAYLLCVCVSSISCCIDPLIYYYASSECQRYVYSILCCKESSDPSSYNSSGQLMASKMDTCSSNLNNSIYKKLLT
Kind of experiment: Calcium mobilization assay in PC-3 cells (Fluo-4 AM). Conditions: protease pre-incubated with inhibitor, thrombin-induced activation. Format: cell-based. Here is the method:
Calcium mobilization in PC-3 and HCT15 cells was assessed using the fluorescent calcium indicator Fluo-4 AM (ThermoFisher, UK). Cells were cultured in RPMI-1640 medium with 10% fetal bovine serum and antibiotics, maintained at 37 °C with 5% CO2. Cells were seeded in 96-well plates and incubated with 5 μM Fluo-4 AM for 30 min at 37 °C. After washing, cells were treated with 5 units/well of thermolysin-like protease or the agonists TFLLRN (PAR-1) and SLIGKV (PAR-2). Intracellular calcium changes were monitored using a BMG Fluostar plate reader (excitation: 494 nm, emission: 516 nm).

Molecules are shown by their SMILES.

In the case of `c1cnc2c(c1)ccc1cccnc12` [1,10-phenanthroline], the “Inhibition of hydrolysis of Mca-Lys-Pro-Leu-Gly-Leu-Dap-(Dnp)-Ala-Arg-NH2 (progress curves)” value (“Inhibition of hydrolysis … (progress curves)” for short) in experiment [1] is on record as “significantly inhibited”. Moreover, the “Inhibition of azocasein hydrolysis” value in experiment [2] is “significantly reduced protease activity”. Besides, the “Inhibition of proteolytically active bands in zymogram” value in experiment [3] is “inhibited”.
On to `CC(C)C[C@H](NC(=O)[C@H]1O[C@@H]1C(=O)O)C(=O)NCCCCN=C(N)N` [Inhibitor E-64, E-64], for which the “Inhibition of hydrolysis … (progress curves)” value in experiment [1] is given as “minimal effects”. Further, the “Inhibition of azocasein hydrolysis” value in experiment [2] was “partial inhibition”.
For `NCCCCC(NC(=O)C(CC(N)=O)NC(=O)CS)C(N)=O` (stereo not drawn) [Me-Asn-Lys-NH2], in experiment [4], the Ki (as a rule, a measure of affinity in units of concentration, obtained from inhibition or displacement) was determined as 20.9 µM.
On the same count and under the same terms, in the case of `NC(=O)CC(NC(=O)CS)C(=O)NC(Cc1c[nH]c2ccccc12)C(N)=O` (stereo not drawn) [Me-Asn-Trp-NH2] it was 4.35 µM; in that of `NC(=O)CC(NC(=O)CS)C(=O)NC(Cc1ccc(O)cc1)C(N)=O` (stereo not drawn) [Me-Asn-Tyr-NH2], 5.71 µM.
Same read-out and setting: then `CCC(C)C(NC(=O)C(NC(=O)CS)C(C)CC)C(N)=O` (stereo not drawn) [Me-Ile-Ile-NH2], with 11.2 µM; and `CCC(C)C(NC(=O)CS)C(=O)NC(C(N)=O)C(C)C` (stereo not drawn) [Me-Ile-Val-NH2], with 8.33 µM.
In the case of `CSCCC(NC(=O)CS)C(=O)NC(Cc1ccc(O)cc1)C(N)=O` (stereo not drawn) [Me-Met-Tyr-NH2, SH-CH2-CO-Met-Tyr-NH2], in experiment [4], the inhibition constant Ki came to 1.95 µM.
`N=C(N)NCCCC(NC(=O)C1CCCN1C(=O)CS)C(N)=O` (stereo not drawn) [Me-Pro-Arg-NH2, SH-CH2-CO-Pro-Arg-NH2]: in experiment [4], the Ki turned out to be 3.97 µM. The “Reversal of the protease's PAR-1 disarming effect” value in experiment [5] is recorded as “reversed”.
Regarding `NC(=O)C(Cc1ccccc1)NC(=O)C(Cc1ccc(O)cc1)NC(=O)CS` (stereo not drawn) [Me-Tyr-Phe-NH2], the Ki in experiment [4] was found to be 5.52 µM.
Consider `CC(C)C(NC(=O)C(NC(=O)CS)C(C)C)C(N)=O` (stereo not drawn) [Me-Val-Val-NH2], for which, in experiment [4], the Ki turned out to be 3.21 µM.
Regarding `O=S(=O)(F)Cc1ccccc1` [PMSF], the “Inhibition of hydrolysis … (progress curves)” value in experiment [1] is recorded as “minimal effects”. Further, the “Inhibition of azocasein hydrolysis” value in experiment [2] is given as “Slight inhibition”.

The values above are taken from paper PMC11596557, “Exiguolysin, a Novel Thermolysin (M4) Peptidase from Exiguobacterium oxidotolerans” (Microorganisms, 2024).
